From patent US7491794B2, “Macrocyclic compounds as inhibitors of viral replication” (Intermune, Inc., priority 2003, dated 2009)
Where two headings read alike, the source gives them in different places.

How the values were obtained:
[1] = target: T1, NS3-NS4A protease (Hepatitis C virus genotype 1a, UniProt P27958); experiment: NS3-NS4A protease assay (NS3 inhibition assay, RETS1 substrate), Section B; format: biochemical
T1 construct: Recombinant E. coli or Baculovirus full-length NS3 was diluted to 3.33 μM with assay buffer; made in house; host or cells: E. coli or baculovirus (BV) system
T1 sequence (P27958 1027-1657): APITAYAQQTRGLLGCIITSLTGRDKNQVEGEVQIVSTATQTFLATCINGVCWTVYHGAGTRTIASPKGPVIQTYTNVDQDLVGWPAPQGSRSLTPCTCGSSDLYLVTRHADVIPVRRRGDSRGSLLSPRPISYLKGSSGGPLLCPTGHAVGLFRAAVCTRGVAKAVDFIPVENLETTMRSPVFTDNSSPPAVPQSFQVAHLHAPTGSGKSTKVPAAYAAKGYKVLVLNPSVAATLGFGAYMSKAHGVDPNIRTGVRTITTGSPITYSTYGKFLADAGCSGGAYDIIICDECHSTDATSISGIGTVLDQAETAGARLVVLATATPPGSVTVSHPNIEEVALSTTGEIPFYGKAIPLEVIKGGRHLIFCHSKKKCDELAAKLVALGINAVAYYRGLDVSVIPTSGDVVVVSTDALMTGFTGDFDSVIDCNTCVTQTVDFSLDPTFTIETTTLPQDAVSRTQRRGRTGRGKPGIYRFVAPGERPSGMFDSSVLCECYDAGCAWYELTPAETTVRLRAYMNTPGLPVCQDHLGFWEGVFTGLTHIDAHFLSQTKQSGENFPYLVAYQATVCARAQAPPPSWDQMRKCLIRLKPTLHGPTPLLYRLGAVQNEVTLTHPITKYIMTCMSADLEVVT
Procedure, shortened: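 Full-length NS3 (E. coli or baculovirus) precomplexed with excess NS4A-2 peptide, run at 2 nM (E. coli) or 3 nM (BV) NS3; compounds pre-incubated 10 min at room temperature before RETS1 substrate. Fluorescence (ex 335/em 495 nm) read kinetically 30 min; IC50 from four-parameter fit, converted to Ki via Ki=IC50/(1+[S]/Km).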

[2] = tested on: HCV sub-genomic replicon, GS4.3; experiment: Quantitation by ELISA of NPTII in the HCV sub-genomic replicon, GS4.3, Section B; format: cell-based; settings: Hepatitis C virus; GS4.3 cells, 72 h incubation; read-out: Replicon EC50
Description: Quantitation by ELISA of the Selectable Marker Protein, Neomycin Phosphotransferase II (NPTII) in the HCV Sub-Genomic Replicon, GS4.3
The HCV sub-genomic replicon (1377/NS3-3′, accession No. AJ242652), stably maintained in HuH-7 hepatoma cells, was created by Lohmann et al. Science 285: 110-113 (1999). The replicon-containing cell culture, designated GS4.3, was obtained from Dr. Christoph Seeger of the Institute for Cancer Research, Fox Chase Cancer Center, Philadelphia, Pa.
GS4.3 cells were maintained at 37° C., 5% CO2, in DMEM (Gibco 11965-092) supplemented with L-glutamine 200 mM (100×) (Gibco25030-081), non-essential amino acids (NEAA)(Biowhittaker 13-114E), heat-inactivated (HI) Fetal Bovine Serum(FBS)(Hyclone SH3007.03) and 750 μg/ml geneticin (G418)(Gibco 10131-035). Cells were sub-divided 1:3 or 4 every 2-3 days.
24 hours prior to the assay, GS4.3 cells were collected, counted, and plated in 96-well plates (Costar 3585) at 7500 cells/well in 100 μl standard maintenance medium (above) and incubated in the conditions above. To initiate the assay, culture medium was removed, cells were washed once with PBS (Gibco 10010-023) and 90 μl Assay Medium (DMEM, L-glutamine, NEAA, 10% HI FBS, no G418) was added. Inhibitors were made as a 10× stock in Assay Medium, (3-fold dilutions from 10 μM to […] final concentration, final DMSO concentration 1%), 10 μl were added to duplicate wells, plates were rocked to mix, and incubated as above for 72 h.
An NPTII ELISA kit was obtained from AGDIA, Inc. (Compound direct ELISA test system for Neomycin Phosphotransferase II, PSP 73000/4800). Manufacturer's instructions were followed, with some modifications. 10×PEB-1 lysis buffer was made up to include 500 μM PMSF (Sigma P7626, 50 mM stock in isopropanol). After 72 h incubation, cells were washed once with PBS and 150 μl PEB-1 with PMSF was added per well. Plates were agitated vigorously for 15 minutes, room temperature, then frozen at −70° C. Plates were thawed, lysates were mixed thoroughly, and 100 μl were applied to an NPTII Elisa plate. A standard curve was made. Lysate from DMSO-treated control cells was pooled, serially diluted with PEB-1 with PMSF, and applied to duplicate wells of the ELISA plate, in a range of initial lysate amount of 150u1-2.5 ul. In addition, 100 μl buffer alone was applied in duplicate as a blank. Plates were sealed and gently agitated at room temperature for 2 h. Following capture incubation, the plates were washed 5×300 μl with PBS-T (0.5% Tween-20, PBS-T was supplied in the ELISA kit). For detection, a 1× dilution of enzyme conjugate diluent MRS-2 (5×) was made in PBS-T, into which 1:100 dilutions of enzyme conjugates A and B were added, as per instructions. Plates were resealed, and incubated with agitation, covered, room temperature, for 2 h. The washing was then repeated and 100 μl of room temperature TMB substrate was added. After approximately 30 minutes incubation (room temperature, agitation, covered), the reaction was stopped with 50 μl 3M sulfuric acid. Plates were read at 450 nm on a Molecular Devices Versamax plate reader.
Inhibitor effect was expressed as a percentage of DMSO-treated control signal, and inhibition curves were calculated using a 4-parameter equation: y=A+((B−A)/(1+((C/x)^D))), where C is half-maximal activity or EC50.

CC(C)(C)OC(=O)N[C@H]1CCCCC/C=C\[C@@H]2C[C@@]2(C(=O)NS(=O)(=O)C2CC2)NC(=O)[C@@H]2C[C@@H](OC(=O)N3Cc4ccc(C(=O)O)cc4C3)CN2C1=O [AR00365084, (1S,4R,6S,14S,18R)-1,3-Dihydro-isoindole-2,5-dicarboxylic acid 2-(14-tert-butoxycarbonylamino-4-cyclopropanesulfonylaminocarbonyl-2,15-dioxo-3,16-diaza-tricyclo[14.3.0.0^4,6]nonadec-7-en-18-yl) ester]
IC50 ([1]; read-out: NS3-NS4A IC50): < 100 nM
EC50 [2]: < 10000 nM

O=C(NC1CCOC1)N[C@H]1CCCCC/C=C\[C@@H]2C[C@@]2(C(=O)NS(=O)(=O)C2CC2)NC(=O)[C@@H]2C[C@@H](OC(=O)N3CCc4ccccc4C3)CN2C1=O (stereo partly drawn) [AR00320222, (1S,4R,6S,14S,18R)-3,4-Dihydro-1H-isoquinoline-2-carboxylic acid 4-cyclopropanesulfonylaminocarbonyl-2,15-dioxo-14-[3-(tetrahydro-furan-3-yl)-ureido]-3,16-diaza-tricyclo[14.3.0.0^4,6]nonadec-7-en-18-yl ester]
IC50 ([1]; read-out: NS3-NS4A IC50): < 100 nM
EC50 [2]: < 10000 nM

CC(C)(C)OC(=O)N[C@H]1CCCCC/C=C\[C@@H]2C[C@@]2(C(=O)NS(=O)(=O)C2CC2)NC(=O)[C@@H]2C[C@@H](OC(=O)N3Cc4ccc(O)cc4C3)CN2C1=O [AR00364936, (1S,4R,6S,14S,18R)-5-Hydroxy-1,3-dihydro-isoindole-2-carboxylic acid 14-tert-butoxycarbonylamino-4-cyclopropanesulfonylaminocarbonyl-2,15-dioxo-3,16-diaza-tricyclo[14.3.0.0^4,6]nonadec-7-en-18-yl ester]
IC50 ([1]; read-out: NS3-NS4A IC50): < 100 nM
EC50 [2]: < 1000 nM

CC(C)Nc1nc(-c2ccc3c(c2)CN(C(=O)O[C@@H]2C[C@H]4C(=O)N[C@]5(C(=O)NS(=O)(=O)C6CC6)C[C@H]5/C=C\CCCCC[C@H](NC(=O)OC(C)(C)C)C(=O)N4C2)C3)cs1 [AR00365019, (1S,4R,6S,14S,18R)-5-(2-Isopropylamino-thiazol-4-yl)-1,3-dihydro-isoindole-2-carboxylic acid 14-tert-butoxycarbonylamino-4-cyclopropanesulfonylaminocarbonyl-2,15-dioxo-3,16-diaza-tricyclo[14.3.0.0^4,6]nonadec-7-en-18-yl ester]
IC50 ([1]; read-out: NS3-NS4A IC50): < 100 nM
EC50 [2]: < 100 nM

CC(C)Nc1ccc2c(c1)CN(C(=O)O[C@@H]1C[C@H]3C(=O)N[C@]4(C(=O)NS(=O)(=O)C5CC5)C[C@H]4/C=C\CCCCC[C@H](NC(=O)OC(C)(C)C)C(=O)N3C1)C2 [AR00341649, (1S,4R,6S,14S,18R)-5-Isopropylamino-1,3-dihydro-isoindole-2-carboxylic acid 14-tert-butoxycarbonylamino-4-cyclopropanesulfonylaminocarbonyl-2,15-dioxo-3,16-diaza-tricyclo[14.3.0.0^4,6]nonadec-7-en-18-yl ester]
IC50 ([1]; read-out: NS3-NS4A IC50): < 100 nM
EC50 [2]: < 100 nM

C[C@H]1CN(C(=O)O[C@@H]2C[C@H]3C(=O)N[C@]4(C(=O)O)C[C@H]4C=CCCCCC[C@H](NC(=O)OC(C)(C)C)C(=O)N3C2)Cc2ccccc21 [AR00320122, (1S,4R,6S,14S,18R)-14-tert-Butoxycarbonylamino-18-(4R-methyl-3,4-dihydro-1H-isoquinoline-2-carbonyloxy)-2,15-dioxo-3,16-diaza-tricyclo[14.3.0.0^4,6]nonadec-7-ene-4-carboxylic acid]
IC50 ([1]; read-out: NS3-NS4A IC50): < 1000 nM
EC50 [2]: < 10000 nM

O=C(N[C@H]1CCCCC/C=C\[C@@H]2C[C@@]2(C(=O)NS(=O)(=O)C2CC2)NC(=O)[C@@H]2C[C@@H](OC(=O)N3Cc4ccccc4C3)CN2C1=O)O[C@@H]1CCOC1 [AR00320079, (1S,4R,6S,14S,18R)-1,3-Dihydro-isoindole-2-carboxylic acid 4-cyclopropanesulfonylaminocarbonyl-2,15-dioxo-14-(tetrahydro-furan-3-yloxycarbonylamino)-3,16-diaza-tricyclo[14.3.0.0^4,6]nonadec-7-en-18-yl ester]
IC50 ([1]; read-out: NS3-NS4A IC50): < 100 nM
EC50 [2]: < 100 nM

CC(=O)N[C@H](C(=O)N[C@H]1CCCCC/C=C\[C@@H]2C[C@@]2(C(=O)NS(=O)(=O)C2CC2)NC(=O)[C@@H]2C[C@@H](OC(=O)N3Cc4cccc(F)c4C3)CN2C1=O)C1CCCCC1 [AR00340122, (1S,4R,6S,14S,18R)-4-Fluoro-1,3-dihydro-isoindole-2-carboxylic acid 14-(2-acetylamino-2-cyclohexyl-acetylamino)-4-cyclopropanesulfonylaminocarbonyl-2,15-dioxo-3,16-diaza-tricyclo[14.3.0.0^4,6]nonadec-7-en-18-yl ester]
IC50 [1]: < 100 nM
EC50 [2]: < 1000 nM

CC(C)(C)OC(=O)N[C@H]1CCCCC/C=C\[C@@H]2C[C@@]2(C(=O)O)NC(=O)[C@@H]2C[C@@H](OC(=O)N3CCc4nc(Nc5ccccc5)sc4C3)CN2C1=O [AR00304000, (1S,4R,6S,14S,18R)-14-tert-Butoxycarbonylamino-2,15-dioxo-18-(2-phenylamino-6,7-dihydro-4H-thiazolo[5,4-c]pyridine-5-carbonyloxy)-3,16-diaza-tricyclo[14.3.0.0^4,6]nonadec-7-ene-4-carboxylic acid]
IC50 ([1]; read-out: NS3-NS4A IC50): < 1000 nM
EC50 [2]: < 10000 nM

O=C(N[C@H]1CCCCCC=C[C@@H]2C[C@@]2(C(=O)O)NC(=O)[C@@H]2C[C@@H](OC(=O)N3CCc4cccc(C(F)(F)F)c4C3)CN2C1=O)OC1CCCC1 [AR00304075, (1S,4R,6S,14S,18R)-14-Cyclopentyloxycarbonylamino-2,15-dioxo-18-(8-trifluoromethyl-3,4-dihydro-1H-isoquinoline-2-carbonyloxy)-3,16-diaza-tricyclo[14.3.0.0^4,6]nonadec-7-ene-4-carboxylic acid]
IC50 ([1]; read-out: NS3-NS4A IC50): < 1000 nM
EC50 [2]: < 10000 nM

O=C(CCC(F)(F)F)N[C@H]1CCCCC/C=C\[C@@H]2C[C@@]2(C(=O)NS(=O)(=O)C2CC2)NC(=O)[C@@H]2C[C@@H](OC(=O)N3Cc4cccc(F)c4C3)CN2C1=O [AR00338071, (1S,4R,6S,14S,18R)-4-Fluoro-1,3-dihydro-isoindole-2-carboxylic acid 4-cyclopropanesulfonylaminocarbonyl-2,15-dioxo-14-(4,4,4-trifluoro-butyrylamino)-3,16-diaza-tricyclo[14.3.0.0^4,6]nonadec-7-en-18-yl ester]
IC50 ([1]; read-out: NS3-NS4A IC50): < 100 nM
EC50 [2]: < 100 nM

CC(C)(C)CC(=O)N[C@H]1CCCCC/C=C\[C@@H]2C[C@@]2(C(=O)NS(=O)(=O)C2CC2)NC(=O)[C@@H]2C[C@@H](OC(=O)N3Cc4cccc(F)c4C3)CN2C1=O [AR00338070, (1S,4R,6S,14S,18R)-4-Fluoro-1,3-dihydro-isoindole-2-carboxylic acid 4-cyclopropanesulfonylaminocarbonyl-14-(3,3-dimethyl-butyrylamino)-2,15-dioxo-3,16-diaza-tricyclo[14.3.0.0^4,6]nonadec-7-en-18-yl ester]
IC50 ([1]; read-out: NS3-NS4A IC50): < 100 nM
EC50 [2]: < 100 nM

CC(C)(C)OC(=O)N[C@H]1CCCCC/C=C\[C@@H]2C[C@@]2(C(=O)NS(=O)(=O)c2ccc(Cl)cc2)NC(=O)[C@@H]2C[C@@H](OC(=O)N3Cc4ccccc4C3)CN2C1=O [AR00334250, (1S,4R,6S,14S,18R)-1,3-Dihydro-isoindole-2-carboxylic acid 14-tert-butoxycarbonylamino-4-(4-chloro-benzenesulfonylaminocarbonyl)-2,15-dioxo-3,16-diaza-tricyclo[14.3.0.0^4,6]nonadec-7-en-18-yl ester]
IC50 ([1]; read-out: NS3-NS4A IC50): < 100 nM
EC50 [2]: < 100 nM
